From patent US11066404B2, “Dihydropyrido[2,3-d]pyrimidinone compounds as CDK2 inhibitors” (Incyte Corporation, priority 2018, dated 2021) come the findings set out here.

Some results are limits rather than exact numbers.

In the assay the target is CDK2/Cyclin E1 (Homo sapiens (Human), UniProt P24941). Nature of the assay: CDK2/Cyclin E1 HTRF Enzyme Activity Assay. It is filed as biochemical. Conditions: 1 mM ATP. The procedure:
Example A. CDK2/Cyclin E1 HTRF Enzyme Activity Assay
CDK2/Cyclin E1 enzyme activity assays utilize full-length human CDK2 co-expressed as N-terminal GST-tagged protein with FLAG-Cyclin E1 in a baculovirus expression system (Carna Product Number 04-165). Assays are conducted in white 384-well polystyrene plates in a final reaction volume of 8 μL. CDK2/Cyclin E1 (0.25 nM) is incubated with compounds (40 nL serially diluted in DMSO) in the presence of ATP (50 μM or 1 mM) and 50 nM ULight™-labeled eIF4E-binding protein 1 (THR37/46) peptide (PerkinElmer) in assay buffer (containing 50 mM HEPES pH 7.5, 1 mM EGTA, 10 mM MgCl2, 2 mM DTT, 0.05 mg/ml BSA, and 0.01% Tween 20) for 60 minutes at room temperature. The reactions are stopped by the addition of EDTA and Europium-labeled anti-phospho-4E-BP 1 antibody (PerkinElmer), for a final concentration of 15 mM and 1.5 nM, respectively. HTRF signals are read after 1 hour at room temperature on a PHERAstar FS plate reader (BMG Labtech). Data is analyzed with IDBS XLFit and GraphPad Prism 5.0 software using a three or four parameter dose response curve to determine IC50 for each compound.

Regarding `CCC(C(F)F)N1C(=O)C(C)(C)Cc2cnc(NC3CCN(S(C)(=O)=O)CC3)nc21` (racemic) [Example 4, 8-(1,1-difluorobutan-2-yl)-6,6-dimethyl-2-((1-(methylsulfonyl)piperidin-4-yl)amino)-5,8-dihydropyrido[2,3-d]pyrimidin-7(6H)-one], the IC50 was in the range of 0.01 to 0.1 µM.

Regarding `CC1(C)Cc2cnc(NC3CCN(S(C)(=O)=O)CC3)nc2N(C2CCOC2)C1=O` (racemic) [Example 6, 6,6-dimethyl-2-((1-(methylsulfonyl)piperidin-4-yl)amino)-8-(tetrahydrofuran-3-yl)-5,8-dihydropyrido[2,3-d]pyrimidin-7(6H)-one], the IC50 lay in the range of 0.1 to 0.5 µM.

In the case of `CC1(C)Cc2cnc(Nc3ccc(S(N)(=O)=O)cc3)nc2N(C2CCCC2)C1=O` [Example 1, 4-((8-cyclopentyl-6,6-dimethyl-7-oxo-5,6,7,8-tetrahydropyrido[2,3-d]pyrimidin-2-yl)amino)benzenesulfonamide], the IC50 was at most 0.01 µM.

In turn, `CC1(C)Cc2cnc(NC3CCN(S(C)(=O)=O)CC3)nc2N(C2CCCC2)C1=O` [Example 2, 8-cyclopentyl-6,6-dimethyl-2-((1-(methylsulfonyl)piperidin-4-yl)amino)-5,8-dihydropyrido[2,3-d]pyrimidin-7(6H)-one] registered a 50% inhibitory concentration (IC50) of at most 0.01 µM.

Compound `CC1(C)Cc2cnc(NC3CCN(S(C)(=O)=O)CC3)nc2N(c2ccccc2)C1=O` [Example 3, 6,6-dimethyl-2-((1-(methylsulfonyl)piperidin-4-yl)amino)-8-phenyl-5,8-dihydropyrido[2,3-d]pyrimidin-7(6H)-one] gave an IC50 of 0.1 to 0.5 µM.

`Cn1nccc1CN1C(=O)C(C)(C)Cc2cnc(NC3CCN(S(C)(=O)=O)CC3)nc21` [Example 5, 6,6-dimethyl-8-((1-methyl-1H-pyrazol-5-yl)methyl)-2-((1-(methylsulfonyl)piperidin-4-yl)amino)-5,8-dihydropyrido[2,3-d]pyrimidin-7(6H)-one] came in with an IC50 of 0.1 to 0.5 µM.
